Molecules are shown by their SMILES. “And” between values parts separate entries of the source, which are not always exact repeats. Equal entries are not always repeated. Inconclusive results and toxic doses are left out.

The subject of the assay is L1210 leukemia ip in BDF1 mice, survival T/C. In words: NCI In Vivo Anticancer Drug Screen. Data for tumor model L1210 Leukemia (intraperitoneal) in B6D2F1 (BDF1) mice. To be noted: higher = longer survival. The gist of the method:
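Tumor cells were implanted, animals were treated, and survival was followed. The result divides the treated measurement by the vehicle-control measurement.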

Setting [1] is: endpoint: mean survival time, dose: 100.0 mg/kg/injection, schedule: Q04DX003 (ip), vehicle: Klucel (hydroxypropylcellulose) (HPC).
The mark [2] stands for this setting: endpoint: mean survival time, dose: 200.0 mg/kg/injection, schedule: Q04DX003 (ip), vehicle: Klucel (hydroxypropylcellulose) (HPC).
[3] abbreviates: endpoint: mean survival time, dose: 400.0 mg/kg/injection, schedule: Q04DX003 (ip), vehicle: Klucel (hydroxypropylcellulose) (HPC).

Turning to `CS(=O)(=O)OCCCl`, the T/C is, setting by setting: (endpoint: mean survival time, dose: 18.8 mg/kg/injection, schedule: Q01DX010 (ip), vehicle: saline) 92 % of control and 96 % of control; (endpoint: mean survival time, dose: 37.5 mg/kg/injection, schedule: Q01DX010 (ip), vehicle: saline) 92 % of control and 100 % of control; (endpoint: mean survival time, dose: 75.0 mg/kg/injection, schedule: Q01DX010 (ip), vehicle: saline) 101 % of control and 104 % of control; (endpoint: mean survival time, dose: 150.0 mg/kg/injection, schedule: Q01DX010 (ip), vehicle: saline) 97 % of control and 102 % of control.
With `Cc1noc(NC(=O)Nc2ccc(Cl)cc2Cl)c1C`, the T/C (endpoint: mean survival time, dose: 12.5 mg/kg/injection, schedule: Q01DX009 (ip), vehicle: saline with Tween-80) is 86 % of control; the T/C (endpoint: mean survival time, dose: 25.0 mg/kg/injection, schedule: Q01DX009 (ip), vehicle: saline with Tween-80) was 89 % of control; the T/C (endpoint: mean survival time, dose: 50.0 mg/kg/injection, schedule: Q01DX009 (ip), vehicle: saline with Tween-80) is 91 % of control; the T/C (endpoint: mean survival time, dose: 100.0 mg/kg/injection, schedule: Q01DX009 (ip), vehicle: saline with Tween-80) is 91 % of control; the T/C (endpoint: mean survival time, dose: 200.0 mg/kg/injection, schedule: Q01DX009 (ip), vehicle: saline with Tween-80) is 87 % of control.
For the molecule `CN(C)C(=S)SCNC(=S)NCSC(=S)N(C)C`, the T/C reads like this: under setting [1], 106 % of control; under setting [2], 96 % of control; under setting [3], 98 % of control.
For the molecule `CCSc1nc2ccccc2s1`, the T/C runs as follows: (endpoint: mean survival time, dose: 100.0 mg/kg/injection, schedule: Q01DX001 (ip), vehicle: other) 93 % of control; (endpoint: mean survival time, dose: 200.0 mg/kg/injection, schedule: Q01DX001 (ip), vehicle: other) 98 % of control.
For the molecule `COC(=O)c1ccccc1C[P+](c1ccccc1)(c1ccccc1)c1ccccc1`, the T/C runs as follows: (endpoint: mean survival time, dose: 0.75 mg/kg/injection, schedule: Q01DX001 (ip), vehicle: saline with Tween-80) 90 % of control; (endpoint: mean survival time, dose: 0.75 mg/kg/injection, schedule: Q01DX009 (ip), vehicle: saline) 91 % of control; (endpoint: mean survival time, dose: 0.75 mg/kg/injection, schedule: Q04DX003 (ip), vehicle: saline) 108 % of control; (endpoint: mean survival time, dose: 1.5 mg/kg/injection, schedule: Q01DX001 (ip), vehicle: saline with Tween-80) 101 % of control; (endpoint: mean survival time, dose: 1.5 mg/kg/injection, schedule: Q01DX009 (ip), vehicle: saline) 102 % of control; (endpoint: mean survival time, dose: 1.5 mg/kg/injection, schedule: Q04DX003 (ip), vehicle: saline) 106 % of control. The T/C was 100 % of control and 106 % of control (endpoint: mean survival time, dose: 3.0 mg/kg/injection, schedule: Q01DX001 (ip), vehicle: saline with Tween-80); 94 % of control (endpoint: mean survival time, dose: 3.0 mg/kg/injection, schedule: Q01DX009 (ip), vehicle: saline); 116 % of control (endpoint: mean survival time, dose: 3.0 mg/kg/injection, schedule: Q04DX003 (ip), vehicle: saline); 100 % of control and 106 % of control (endpoint: mean survival time, dose: 3.12 mg/kg/injection, schedule: Q01DX009 (ip), vehicle: saline); 101 % of control (endpoint: mean survival time, dose: 6.0 mg/kg/injection, schedule: Q01DX001 (ip), vehicle: saline with Tween-80); 97 % of control and 111 % of control (endpoint: mean survival time, dose: 6.25 mg/kg/injection, schedule: Q01DX009 (ip), vehicle: saline with Tween-80). Besides, the T/C (endpoint: mean survival time, dose: 6.25 mg/kg/injection, schedule: Q01DX009 (ip), vehicle: saline) was 100 % of control and 91 % of control; the T/C (endpoint: mean survival time, dose: 12.5 mg/kg/injection, schedule: Q04DX002 (ip), vehicle: Klucel (hydroxypropylcellulose) (HPC)) is 102 % of control; the T/C (endpoint: mean survival time, dose: 25.0 mg/kg/injection, schedule: Q01DX001 (ip), vehicle: saline with Tween-80) was 98 % of control; the T/C (endpoint: mean survival time, dose: 25.0 mg/kg/injection, schedule: Q04DX002 (ip), vehicle: Klucel (hydroxypropylcellulose) (HPC)) is 88 % of control; the T/C (endpoint: mean survival time, dose: 25.0 mg/kg/injection, schedule: Q04DX002 (ip), vehicle: saline with Tween-80) is 104 % of control and 88 % of control; the T/C (endpoint: mean survival time, dose: 50.0 mg/kg/injection, schedule: Q01DX001 (ip), vehicle: saline with Tween-80) was 106 % of control. In addition, the T/C (endpoint: mean survival time, dose: 50.0 mg/kg/injection, schedule: Q04DX002 (ip), vehicle: Klucel (hydroxypropylcellulose) (HPC)) was 102 % of control.
Regarding `O=c1[nH]cc(CCOCc2ccccc2)c(=O)[nH]1`, the T/C (endpoint: mean survival time, dose: 100.0 mg/kg/injection, schedule: Q01DX001 (ip), vehicle: saline) is 103 % of control; the T/C (endpoint: mean survival time, dose: 200.0 mg/kg/injection, schedule: Q01DX001 (ip), vehicle: saline) was 94 % of control; the T/C (endpoint: mean survival time, dose: 400.0 mg/kg/injection, schedule: Q01DX001 (ip), vehicle: saline) was 103 % of control.
On to `CCCCCCCCCC(=O)CC`, for which the T/C (endpoint: mean survival time, dose: 100.0 mg/kg/injection, schedule: Q01DX009 (ip), vehicle: Klucel (hydroxypropylcellulose) (HPC)) was 104 % of control; the T/C under setting [1] was 110 % of control; the T/C (endpoint: mean survival time, dose: 200.0 mg/kg/injection, schedule: Q01DX009 (ip), vehicle: Klucel (hydroxypropylcellulose) (HPC)) was 96 % of control; the T/C under setting [2] is 97 % of control; the T/C (endpoint: mean survival time, dose: 400.0 mg/kg/injection, schedule: Q01DX009 (ip), vehicle: Klucel (hydroxypropylcellulose) (HPC)) is 102 % of control; the T/C under setting [3] was 93 % of control.
Turning to `O=C(Nc1ccc(C(=O)O)c(O)c1)Nc1ccccc1C(F)(F)F`, the T/C (endpoint: mean survival time, dose: 50.0 mg/kg/injection, schedule: Q01DX001 (ip), vehicle: carboxymethylcellulose (CMC)) is 92 % of control; the T/C (endpoint: mean survival time, dose: 50.0 mg/kg/injection, schedule: Q01DX009 (ip), vehicle: carboxymethylcellulose (CMC)) was 100 % of control and 106 % of control; the T/C (endpoint: mean survival time, dose: 50.0 mg/kg/injection, schedule: Q04DX003 (ip), vehicle: carboxymethylcellulose (CMC)) is 93 % of control; the T/C (endpoint: mean survival time, dose: 100.0 mg/kg/injection, schedule: Q01DX001 (ip), vehicle: carboxymethylcellulose (CMC)) is 101 % of control; the T/C (endpoint: mean survival time, dose: 100.0 mg/kg/injection, schedule: Q01DX009 (ip), vehicle: carboxymethylcellulose (CMC)) is 105 % of control and 92 % of control; the T/C (endpoint: mean survival time, dose: 100.0 mg/kg/injection, schedule: Q04DX002 (ip), vehicle: carboxymethylcellulose (CMC)) is 94 % of control and 97 % of control. The T/C reads like this: (endpoint: mean survival time, dose: 100.0 mg/kg/injection, schedule: Q04DX003 (ip), vehicle: carboxymethylcellulose (CMC)) 88 % of control; (endpoint: mean survival time, dose: 200.0 mg/kg/injection, schedule: Q01DX001 (ip), vehicle: carboxymethylcellulose (CMC)) 97 % of control; (endpoint: mean survival time, dose: 200.0 mg/kg/injection, schedule: Q01DX009 (ip), vehicle: carboxymethylcellulose (CMC)) 91 % of control and 92 % of control; (endpoint: mean survival time, dose: 200.0 mg/kg/injection, schedule: Q04DX002 (ip), vehicle: carboxymethylcellulose (CMC)) 101 % of control and 108 % of control; (endpoint: mean survival time, dose: 200.0 mg/kg/injection, schedule: Q04DX003 (ip), vehicle: carboxymethylcellulose (CMC)) 89 % of control; (endpoint: mean survival time, dose: 400.0 mg/kg/injection, schedule: Q04DX002 (ip), vehicle: carboxymethylcellulose (CMC)) 103 % of control.
As for `COc1ccc(OC)c(C(=O)CCCC(=O)O)c1`, the T/C was 91 % of control (endpoint: mean survival time, dose: 100.0 mg/kg/injection, schedule: Q01DX009 (ip), vehicle: acetone); 96 % of control (endpoint: mean survival time, dose: 100.0 mg/kg/injection, schedule: Q04DX003 (ip), vehicle: saline with Tween-80); 86 % of control (endpoint: mean survival time, dose: 200.0 mg/kg/injection, schedule: Q01DX009 (ip), vehicle: acetone); 89 % of control (endpoint: mean survival time, dose: 200.0 mg/kg/injection, schedule: Q04DX003 (ip), vehicle: saline with Tween-80); 90 % of control (endpoint: mean survival time, dose: 400.0 mg/kg/injection, schedule: Q01DX009 (ip), vehicle: acetone); 91 % of control (endpoint: mean survival time, dose: 400.0 mg/kg/injection, schedule: Q04DX003 (ip), vehicle: saline with Tween-80).
For `BrCc1ccc(CBr)c(Br)c1`, the T/C (endpoint: mean survival time, dose: 25.0 mg/kg/injection, schedule: Q01DX009 (ip), vehicle: Klucel (hydroxypropylcellulose) (HPC)) was 108 % of control; the T/C (endpoint: mean survival time, dose: 50.0 mg/kg/injection, schedule: Q01DX009 (ip), vehicle: Klucel (hydroxypropylcellulose) (HPC)) was 98 % of control; the T/C (endpoint: mean survival time, dose: 50.0 mg/kg/injection, schedule: Q04DX003 (ip), vehicle: Klucel (hydroxypropylcellulose) (HPC)) is 104 % of control; the T/C under setting [1] was 95 % of control.
For the molecule `CCOC1(OCC)C(C)C(c2ccccc2)C(c2ccccc2)C1C` (stereo unspecified), the T/C (endpoint: mean survival time, dose: 75.0 mg/kg/injection, schedule: Q01DX001 (ip), vehicle: saline) is 95 % of control; the T/C (endpoint: mean survival time, dose: 150.0 mg/kg/injection, schedule: Q01DX001 (ip), vehicle: saline) was 90 % of control; the T/C (endpoint: mean survival time, dose: 300.0 mg/kg/injection, schedule: Q01DX001 (ip), vehicle: saline) is 89 % of control.
`Cc1cc(NCCCCCCCNc2cc(C)nc3cc(N)ccc23)c2ccc(N)cc2n1`: the T/C runs as follows: (endpoint: median survival time, dose: 1.56 mg/kg/injection, schedule: Q01DX009 (ip), vehicle: water) 123 % of control; (endpoint: median survival time, dose: 6.25 mg/kg/injection, schedule: Q01DX009 (ip), vehicle: water) 154 % of control; (endpoint: median survival time, dose: 12.5 mg/kg/injection, schedule: Q01DX009 (ip), vehicle: water) 194 % of control; (endpoint: median survival time, dose: 25.0 mg/kg/injection, schedule: Q01DX009 (ip), vehicle: water) 116 % of control.

(Values after PubChem BioAssay AID248 (DTP/NCI, 2004).)
